Measurements from US10919916B2, “Boron-containing small molecules” (Bill & Melinda Gates Foundation, priority 2016, dated 2021).
≈ marks a conversion by molar mass, not a printed value. Counter-ions that a name gives are not always drawn. Like-named read-outs stand apart in the source and are kept apart here.

Assays:
[1] = tested on: Staphylococcus aureus, MRSA (ATCC 33591); assay: Antibacterial MIC assay (microbroth dilution, CLSI); assay type: cell-based; settings: read-out: MIC Staphylococcus aureus, MRSA (ATCC 33591)
Source text: (§1) All MIC testing of bacteria followed the Clinical and Laboratory Standards Institute (CLSI) guidelines for antimicrobial testing of aerobic bacteria (Methods for Dilution Antimicrobial Susceptibility Tests for Bacteria that Grow Aerobically; Approved Standard—Tenth Edition, M07-A10; Performance Standards for Antimicrobial Susceptibility Testing; Twenty-fifth Informational Supplement, M100-S25).
(§2) Briefly, the microbroth dilution MIC method was used to quantitatively measure the in vitro antibacterial activity of a compound against a given bacterial isolate. The following bacterial strains were evaluated: Staphylococcus aureus, MRSA (ATCC 33591) and Streptococcus pneumoniae (ATCC 49619). Bacteria were grown in cation-adjusted Mueller-Hinton broth, with additions as required per species growth requirements (e.g. 3% lysed horse blood for fastidious organisms such as S. pneumoniae). A direct colony suspension in saline was prepared from colonies on an overnight agar plate to achieve a turbidity equivalent to 0.5 McFarland standard, which was subsequently diluted into the assay plate to achieve 5×10^5 CFU/mL. Assays plates were prepared by 2-fold dilution of compound across the plate and included a positive growth control.

[2] = tested on: Streptococcus pneumoniae (ATCC 49619); assay: as above; assay type: cell-based
Source text: as §1
as §2, with “The following bacterial strains were evaluated: Staphylococcus aureus, MRSA (ATCC 33591) and Streptococcus pneumoniae (ATCC 49619).” left out

[3] = ATCC49619, read-out: MIC Streptococcus pneumoniae (ATCC 49619)
[4] = microbroth dilution, cation-adjusted Mueller-Hinton broth, 35° C. for 16-20 hours
[5] = ATCC49619, microbroth dilution, 3% lysed horse blood, 35° C. for 16-20 hours, read-out: MIC Streptococcus pneumoniae (ATCC 49619)

MIC [1, 4] [µg/mL] | MIC [2, 5] [µg/mL] | Compound | MIC [1] [µg/mL] | MIC [2, 3] [µg/mL]
 |  | C=C[C@]1(C)C[C@@H](OC(=O)COc2ccc3c(c2)B(O)OC3)[C@]2(C)[C@H](C)CC[C@]3(CCC(=O)[C@H]32)[C@@H](C)[C@@H]1O [Compound 1, (3aR,4R,5R,7S,8S,9R,9aS,12R)-8-hydroxy-4,7,9,12-tetramethyl-3-oxo-7-vinyldecahydro-4,9a-propanocyclopenta[8]annulen-5-yl 2-((1-hydroxy-1,3-dihydrobenzo[c][1,2]oxaborol-6-yl)oxy)acetate] | < 0.25 | < 0.25
 |  | C=C[C@]1(C)C[C@@H](OC(=O)COc2ccc3c(c2Cl)B(O)OC3CN)[C@]2(C)[C@H](C)CC[C@]3(CCC(=O)[C@H]32)[C@@H](C)[C@@H]1O (stereo partly drawn) [Compound 31, (3aR,4R,5R,7S,8S,9R,9aS,12R)-8-hydroxy-4,7,9,12-tetramethyl-3-oxo-7-vinyldecahydro-4,9a-propanocyclopenta[8]annulen-5-yl 2-((3-(aminomethyl)-7-chloro-1-hydroxy-1,3-dihydrobenzo[c][1,2]oxaborol-6-yl)oxy)acetate Hydrochloride] | 0.5 to 2 | 0.5 to 2
 |  | C=C[C@]1(C)C[C@@H](OC(=O)COc2ccc3c(c2OC)B(O)OC3)[C@]2(C)[C@H](C)CC[C@]3(CCC(=O)[C@H]32)[C@@H](C)[C@@H]1O [Compound 14, (3aR,4R,5R,7S,8S,9R,9aS,12R)-8-hydroxy-4,7,9,12-tetramethyl-3-oxo-7-vinyldecahydro-4,9a-propanocyclopenta[8]annulen-5-yl2-((1-hydroxy-7-methoxy-1,3-dihydrobenzo[c][1,2]oxaborol-6-yl)oxy)acetate] | < 0.25 | 0.5 to 2 (≈ 0.925 to 3.7 µM)
 |  | C=C[C@]1(C)C[C@@H](OC(=O)COc2c(F)cc3c(c2F)B(O)OC3)[C@]2(C)[C@H](C)CC[C@]3(CCC(=O)[C@H]32)[C@@H](C)[C@@H]1O [Compound 5, (3aR,4R,5R,7S,8S,9R,9aS,12R)-8-hydroxy-4,7,9,12-tetramethyl-3-oxo-7-vinyldecahydro-4,9a-propanocyclopenta[8]annulen-5-yl 2-((5,7-difluoro-1-hydroxy-1,3-dihydrobenzo[c][1,2]oxaborol-6-yl)oxy)acetate] | < 0.25 | < 0.25
 |  | C=C[C@]1(C)C[C@@H](OC(=O)C[S@+]([O-])c2ccc3c(c2)B(O)OC3)[C@]2(C)[C@H](C)CC[C@]3(CCC(=O)[C@H]32)[C@@H](C)[C@@H]1O [Compound 63, (3aR,4R,5R,7S,8S,9R,9aS,12R)-8-hydroxy-4,7,9,12-tetramethyl-3-oxo-7-vinyldecahydro-4,9a-propanocyclopenta[8]annulen-5-yl 2-((S)-(1-hydroxy-1,3-dihydrobenzo[c][1,2]oxaborol-6-yl)sulfinyl)acetate] | 0.5 to 2 (≈ 0.922 to 3.69 µM) | 4 to 32 (≈ 7.37 to 59 µM)
 |  | C=C[C@]1(C)C[C@@H](OC(=O)COc2ccc3c(c2F)B(O)N(S(C)(=O)=O)N=C3)[C@]2(C)[C@H](C)CC[C@]3(CCC(=O)[C@H]32)[C@@H](C)[C@@H]1O [Compound 80, (3aR,4R,5R,7S,8S,9R,9aS,12R)-8-hydroxy-4,7,9,12-tetramethyl-3-oxo-7-vinyldecahydro-4,9a-propanocyclopenta[8]annulen-5-yl 2-((8-fluoro-1-hydroxy-2-(methylsulfonyl)-1,2-dihydrobenzo[d][1,2,3]diazaborinin-7-yl)oxy)acetate] | < 0.25 | 0.5 to 2 (≈ 0.808 to 3.23 µM)
< 0.25 | < 0.25 | C=C[C@]1(C)C[C@@H](OC(=O)COc2ccc3c(c2)B(O)OCC3)[C@]2(C)[C@H](C)CC[C@]3(CCC(=O)[C@H]32)[C@@H](C)[C@@H]1O [Compound 69, (3aR,4R,5R,7S,8S,9R,9aS,12R)-8-hydroxy-4,7,9,12-tetramethyl-3-oxo-7-vinyldecahydro-4,9a-propanocyclopenta[8]annulen-5-yl 2-((1-hydroxy-3,4-dihydro-1H-benzo[c][1,2]oxaborinin-7-yl)oxy)acetate] |  | 
 |  | C=C[C@]1(C)C[C@@H](OC(=O)COc2ccc3c(c2)B(O)N(C(C)=O)N=C3)[C@]2(C)[C@H](C)CC[C@]3(CCC(=O)[C@H]32)[C@@H](C)[C@@H]1O [Compound 87, (3aR,4R,5R,7S,8S,9R,9aS,12R)-8-hydroxy-4,7,9,12-tetramethyl-3-oxo-7-vinyldecahydro-4,9a-propanocyclopenta[8]annulen-5-yl 2-((2-acetyl-1-hydroxy-1,2-dihydrobenzo[d][1,2,3]diazaborinin-7-yl)oxy)acetate] | < 0.25 | < 0.25
< 0.25 | 0.5 to 2 (≈ 0.981 to 3.93 µM) | C=C[C@]1(C)C[C@@H](OC(=O)NCc2ccc3c(c2)B(O)OC3)[C@]2(C)[C@H](C)CC[C@]3(CCC(=O)[C@H]32)[C@@H](C)[C@@H]1O [Compound 56, (3aR,4R,5R,7S,8S,9R,9aS,12R)-8-hydroxy-4,7,9,12-tetramethyl-3-oxo-7-vinyldecahydro-4,9a-propanocyclopenta[8]annulen-5-yl ((1-hydroxy-1,3-dihydrobenzo[c][1,2]oxaborol-6-yl)methyl) carbamate] |  | 
 |  | C=C[C@]1(C)C[C@@H](OC(=O)CNc2ccc3c(c2)B(O)OC3(C)C)[C@]2(C)[C@H](C)CC[C@]3(CCC(=O)[C@H]32)[C@@H](C)[C@@H]1O [Compound 51, (3aR,4R,5R,7S,8S,9R,9aS,12R)-8-hydroxy-4,7,9,12-tetramethyl-3-oxo-7-vinyldecahydro-4,9a-propanocyclopenta[8]annulen-5-yl (1-hydroxy-3,3-dimethyl-1,3-dihydrobenzo[c][1,2]oxaborol-6-yl)glycinate] | < 0.25 | 0.5 to 2 (≈ 0.93 to 3.72 µM)
4 to 32 (≈ 7.2 to 57.6 µM) |  | C=C[C@]1(C)C[C@@H](OC(=O)COc2cc(CN)c3c(c2)B(O)OC3)[C@]2(C)[C@H](C)CC[C@]3(C[C@H](O)C(=O)[C@H]32)[C@@H](C)[C@@H]1O [Compound 42, (2S,3aR,4R,5R,7S,8S,9R,9aS,12R)-2,8-dihydroxy-4,7,9,12-tetramethyl-3-oxo-7-vinyldecahydro-4,9a-propanocyclopenta[8]annulen-5-yl 2-((4-(aminomethyl)-1-hydroxy-1,3-dihydrobenzo[c][1,2]oxaborol-6-yl)oxy)acetate] |  | 
 |  | C=C[C@]1(C)C[C@@H](OC(=O)COc2ccc3c(c2)B(O)NN=C3)[C@]2(C)[C@H](C)CC[C@]3(CCC(=O)[C@H]32)[C@@H](C)[C@@H]1O [Compound 72, (3aR,4R,5R,7S,8S,9R,9aS,12R)-8-hydroxy-4,7,9,12-tetramethyl-3-oxo-7-vinyldecahydro-4,9a-propanocyclopenta[8]annulen-5-yl 2-((1-hydroxy-1,2-dihydrobenzo[d][1,2,3]diazaborinin-7-yl)oxy)acetate] | < 0.25 | < 0.25
 |  | C=C[C@]1(C)C[C@@H](OC(=O)CNc2ccc3c(c2)B(O)OC3)[C@]2(C)[C@H](C)CC[C@]3(CCC(=O)[C@H]32)[C@@H](C)[C@@H]1O [Compound 45, (3aR,4R,5R,7S,8S,9R,9aS,12R)-8-hydroxy-4,7,9,12-tetramethyl-3-oxo-7-vinyldecahydro-4,9a-propanocyclopenta[8]annulen-5-yl (1-hydroxy-1,3-dihydrobenzo[c][1,2]oxaborol-6-yl)glycinate] | < 0.25 | 0.5 to 2 (≈ 0.981 to 3.93 µM)
 |  | C=C[C@]1(C)C[C@@H](OC(=O)COc2ccc3c(c2F)B(O)N(C(=O)OC)N=C3)[C@]2(C)[C@H](C)CC[C@]3(CCC(=O)[C@H]32)[C@@H](C)[C@@H]1O [Compound 93, Methyl 8-fluoro-1-hydroxy-7-(2-(((3aR,4R,5R,7S,8S,9R,9aS,12R)-8-hydroxy-4,7,9,12-tetramethyl-3-oxo-7-vinyldecahydro-4,9a-propanocyclopenta[8]annulen-5-yl)oxy)-2-oxoethoxy)benzo[d][1,2,3]diazaborinine-2(1H)-carboxylate] | < 0.25 | 0.5 to 2 (≈ 0.835 to 3.34 µM)
 |  | C=C[C@]1(C)C[C@@H](OC(=O)COc2ccc3c(c2Cl)B(O)OC3)[C@]2(C)[C@H](C)CC[C@]3(CCC(=O)[C@H]32)[C@@H](C)[C@@H]1O [Compound 6, (3aR,4R,5R,7S,8S,9R,9aS,12R)-8-hydroxy-4,7,9,12-tetramethyl-3-oxo-7-vinyldecahydro-4,9a-propanocyclopenta[8]annulen-5-yl 2-((7-chloro-1-hydroxy-1,3-dihydrobenzo[c][1,2]oxaborol-6-yl)oxy)acetate] | < 0.25 | 0.5 to 2 (≈ 0.918 to 3.67 µM)
< 0.25 |  | C=C[C@]1(C)C[C@@H](OC(=O)COc2ccc3c(c2C#N)B(O)OC3)[C@]2(C)[C@H](C)CC[C@]3(CCC(=O)[C@H]32)[C@@H](C)[C@@H]1O [Compound 16, (3aR,4R,5R,7S,8S,9R,9aS,12R)-8-hydroxy-4,7,9,12-tetramethyl-3-oxo-7-vinyldecahydro-4,9a-propanocyclopenta[8]annulen-5-yl 2-((7-cyano-1-hydroxy-1,3-dihydrobenzo[c][1,2]oxaborol-6-yl)oxy)acetate] |  | 
